Results published in EP4567031A1, “HPK1 INHIBITOR, PREPARATION METHOD THEREFOR, AND USE THEREOF” (Beijing Earthwise Technology Co., Ltd., priority 2022, dated 2024).

The compounds below were run on human Pan T cells (assay: Human Pan T cell IL-2 ELISA). Conditions: Anti-CD3 and Anti-CD28, 48 hours, supernatant IL-2 ELISA, read-out: IL-2 release, EC50.
Format: cell-based
Protocol: A compound was dissolved in DMSO to 10 mM, and then diluted three-fold with DMSO to 9 dosages in a 96-well plate. Then, 10 µL of the diluted compound sample was transferred to a 96-well plate with 90 µL of cell culture medium, and the plate was shaken for 5 minutes. Then, 5 µL of the diluted compound sample was transferred to a 96-well plate with 120 µL of cell culture medium, and the plate was shaken for 5 minutes. According to the experimental design diagram, 50 µL of the diluted compound sample was transferred to a cell plate. Final concentrations of the compound in this assay were 10000.00, 5000, 2500, 1250, 625, 312.5, 156.25, 78.125 and 39.063 nM.
The assay was conducted in a 96-well plate. On the first day of the assay, Anti-CD3 was added to the 96-well plate and incubated in a 4 °C refrigerator overnight. On the second day of the assay, human Pan T cells were recovered, centrifuged and counted. The cell density was adjusted to 1*10^6 cells/ml. Then, 100 µL of cells were added to the 96-well plate washed with PBS and added with Anti-CD3; according to the experimental design diagram, 50 µL of diluted Anti-CD28 and 50 µL of the diluted compound were added to each well, centrifuged, and the cell plate was placed and incubated in an incubator for 48 hours; after 48 hours, the plate was centrifuged and the supernatant was collected for IL-2 ELISA.
The signal value of light absorption was converted into a multiple. Multiple = sample value/the average value of control wells. The average value of control wells refers to the value measured in wells with DMSO added. EC50 values were calculated by XLFit (version 5.3.1.3) in Excel. Equation: Y=Bottom + (Top-Bottom) / (1 + (EC50/X) ^ HillSlope). Table 6. Results of cellular activity of the compounds

Structure (SMILES)	EC50 [nM]
COC1CCn2c(-c3cc4c(c5c3CNC5=O)Nc3ccc(N5CCOCC5)cc3C4(C)C)cnc21 (single isomer, unassigned) [Example 230]	7.6
CC1(C)c2cc(N3CCOCC3)ccc2Nc2c1cc(-c1cnc3n1CCC(C(F)F)C3)c1c2C(=O)NC1 (single isomer, unassigned) [Example 239]	7.5
COC1CCCn2c(-c3cc4c(c5c3CNC5=O)Nc3ccc(N5CCOCC5C)cc3C4(C)C)cnc21 (single isomer, unassigned) [Example 181]	26
CO[C@H]1CCCn2c(-c3cc4c(c5c3CNC5=O)Nc3ccc(N5CC6CCC(C5)O6)cc3C4(C)C)cnc21 [Example 196]	27
CC1(C)c2cc(N3CCOCC3)ccc2Nc2c1cc(-c1cnc3n1CCC(C(F)F)C3)c1c2C(=O)NC1 (single isomer, unassigned) [Example 240]	26
COC1CCc2c(-c3cc4c(c5c3CNC5=O)Nc3ccc(N5CCOCC5)cc3C4(C)C)cncc21 (single isomer, unassigned) [Example 203]	95

Same assay, conditions: Homo sapiens, T-cell, 48 h, Anti-CD3 and Anti-CD28, supernatant IL-2 ELISA, read-out: IL-2 release, EC50

Structure (SMILES)	EC50 [nM]
CC1(C)c2cc(N3CCOCC3)ccc2Nc2c1cc(-c1cnc3c(OC4CC4)nccn13)c1c2C(=O)NC1 [Example 199]	24
Cn1c(-c2cc3c(c4c2CNC4=O)Nc2ccc(N4CCOC(C(C)(C)O)C4)cc2C3(C)C)cnc1C1CC1 (stereo not drawn) [Example 105]	11.6
CC1CCCn2c(-c3cc4c(c5c3CNC5=O)Nc3ccc(N5CCOC(C(C)(C)O)C5)cc3C4(C)C)cnc21 (stereo not drawn) [Example 103]	10.4
COC1CCCn2c(-c3cc4c(c5c3CNC5=O)Nc3cc(C)c(N5CCOCC5)cc3C4(C)C)cnc21 (single isomer, unassigned) [Example 150]	30.6
CC1(C)c2cc(N3CCOC(C(C)(C)O)C3)ccc2Nc2c1cc(-c1cnn3cc(F)ccc13)c1c2C(=O)NC1 (stereo not drawn) [Example 109]	9.18
CC1(C)c2cc(N3CCOCC3)ccc2Nc2c1cc(-c1cnc3cc(N4CC(F)C4)ccn13)c1c2C(=O)NC1 [Example 207]	23
CC1(C)c2cc(N3CCOCC3)ccc2Nc2c1cc(-c1cnc3n1CCCC3O)c1c2C(=O)NC1 (single isomer, unassigned) [Example 227]	6.4
CC1(C)c2cc(N3CCOCC3)ccc2Nc2c1cc(-c1cnc3c(N4CCC4)nccn13)c1c2C(=O)NC1 [Example 211]	55
CC1(C)c2cc(N3CCOC(C(C)(C)O)C3)ccc2Nc2c1cc(-c1cnc3cc(C#N)ccn13)c1c2C(=O)NC1 (single isomer, unassigned) [Example 133]	22.1
CC1(C)c2cc(N3CCOCC3)ccc2Nc2c1cc(-c1cnc3n1CCC(C#N)C3)c1c2C(=O)NC1 (single isomer, unassigned) [Example 242]	8.5
COC1CCCn2c(-c3cc4c(c5c3CNC5=O)Nc3cc(C5CCOCC5)ccc3C4(C)C)cnc21 (single isomer, unassigned) [Example 144]	134
CC1(C)c2cc(N3CCOC(C(C)(C)O)C3)ccc2Nc2c1cc(-c1cnc3cc(C#N)ccn13)c1c2C(=O)NC1 (stereo not drawn) [Example 101]	5.58
COc1ccnc2c(-c3cc4c(c5c3CNC5=O)Nc3ccc(N5CCO[C@@H](C(C)(C)O)C5)cc3C4(C)C)cnn12 [Example 171]	6.3
COc1ccn2c(-c3cc4c(c5c3CNC5=O)Nc3ccc(N5CCOCC5)cc3C4(C)C)cnc2n1 [Example 189]	5.7
Cn1c(-c2cc3c(c4c2CNC4=O)Nc2ccc(N4CCOCC4)cc2C3(C)C)cnc1C1CCCO1 (single isomer, unassigned) [Example 190]	53
CC1(C)c2cc(N3CCOCC3)ccc2Nc2c1cc(-c1cnc3c(OC4CNC4)nccn13)c1c2C(=O)NC1 [Example 224]	33
COc1nccn2c(-c3cc4c(c5c3CNC5=O)Nc3ccc(N5CCOC(C(C)(C)O)C5)cc3C4(C)C)cnc12 (stereo not drawn) [Example 114]	10.9
COCC1(O)CCN(c2ccc3c(c2)C(C)(C)c2cc(-c4cnc5n4CCCC5OC)c4c(c2N3)C(=O)NC4)CC1 (single isomer, unassigned) [Example 231]	10.5
Cc1c(-c2cc3c(c4c2CNC4=O)Nc2ccc(N4CCOC(C(C)(C)O)C4)cc2C3(C)C)cnc2c1NCCO2 (stereo not drawn) [Example 104]	6.44
CC1(C)c2cc(N3CCOCC3)ccc2Nc2c1cc(-c1cnc3c(C4COC4)nccn13)c1c2C(=O)NC1 [Example 188]	73
CC1(C)c2cc(N3CCOC(C(C)(C)O)C3)ccc2Nc2c1cc(-c1cnn3cc(Cl)ccc13)c1c2C(=O)NC1 (single isomer, unassigned) [Example 154]	7.35
CC1(C)c2cc(N3CCOCC3)ccc2Nc2c1cc(-c1cnc3n1CCCC3)c1c2C(=O)NC1 [Example 48]	13.5
CC1(C)c2cc(N3CCOC(C(C)(C)O)C3)ccc2Nc2c1cc(-c1cnc3cc(C(F)F)ccn13)c1c2C(=O)NC1 (single isomer, unassigned) [Example 129]	18.2
COC1CCCn2c(-c3cc4c(c5c3CNC5=O)Nc3ccc(N5CC(C)OC(C)C5)cc3C4(C)C)cnc21 (single isomer, unassigned) [Example 140]	35.8

Structure (SMILES)	EC50 [nM]
Cn1ccc2c(-c3cc4c(c5c3CNC5=O)Nc3ccc(N5CCOCC5)cc3C4(C)C)ccnc21 [Example 42]	14.2
COC1CCCn2c(-c3cc4c(c5c3CNC5=O)Nc3ccc(N5CCC(O)CC5)cc3C4(C)C)cnc21 (single isomer, unassigned) [Example 243]	13
COCC1CN(c2ccc3c(c2)C(C)(C)c2cc(-c4cnc5c(F)c(C)ccn45)c4c(c2N3)C(=O)NC4)CCO1 (stereo not drawn) [Example 131]	8.27
CC1(C)c2cc(N3CCOC(C4(O)CC4)C3)ccc2Nc2c1cc(-c1cnc3cc(C(F)F)ccn13)c1c2C(=O)NC1 (stereo not drawn) [Example 205]	6.6
CCc1nccn2c(-c3cc4c(c5c3CNC5=O)Nc3ccc(N5CCOCC5)cc3C4(C)C)cnc12 [Example 164]	17
CC1(C)c2cc(N3CCOCC3)ccc2Nc2c1cc(-c1cnc3cc(OC4COC4)ccn13)c1c2C(=O)NC1 [Example 217]	19
CN1CCN(c2ccc3c(c2)C(C)(C)c2cc(-c4cnn5cccnc45)c4c(c2N3)C(=O)NC4)CC1 [Example 44]	2.47
Cn1c(-c2cc3c(c4c2CNC4=O)Nc2ccc(N4CCO[C@@H](C(C)(C)O)C4)cc2C3(C)C)cnc1N1CCOCC1 [Example 174]	39
CCc1ncc(-c2cc3c(c4c2CNC4=O)Nc2ccc(N4CCOC(C(C)(C)O)C4)cc2C3(C)C)n1C (single isomer, unassigned) [Example 134]	19.5
CC1(C)c2cc(N3CCOCC3)ccc2Nc2c1cc(-c1cnc3n1CCCC3OC1COC1)c1c2C(=O)NC1 (single isomer, unassigned) [Example 220]	50
CC1(C)c2cc(N3CCOCC3)ccc2Nc2c1cc(-c1cnc3c(OC(F)F)nccn13)c1c2C(=O)NC1 [Example 172]	8.1
CN(C)C(=O)c1ccc2c(c1)C(C)(C)c1cc(-c3cnc4nc(C(F)F)ccn34)c3c(c1N2)C(=O)NC3 [Example 257]	154
Cn1c(-c2cc3c(c4c2CNC4=O)Nc2ccc(N4CCOC(C(C)(C)O)C4)cc2C3(C)C)cnc1C1CCNC1 (single isomer, unassigned) [Example 143]	592
CC1(C)c2cc(N3CCOCC3)ccc2Nc2c1cc(-c1cnc3cc(C#N)cnn13)c1c2C(=O)NC1 [Example 246]	9.2
CC1(C)c2cc(N3CCOC(CO)C3)ccc2Nc2c1cc(-c1cnc3cc(F)ccn13)c1c2C(=O)NC1 (stereo not drawn) [Example 108]	5.58
Cn1ncc2c(-c3cc4c(c5c3CNC5=O)Nc3ccc(N5CCOC(C(C)(C)O)C5)cc3C4(C)C)cncc21 (single isomer, unassigned) [Example 146]	5.7
CC1(C)c2cc(N3CCOC(C(C)(C)O)C3)ccc2Nc2c1cc(-c1cnc3c(Cl)cccn13)c1c2C(=O)NC1 (stereo not drawn) [Example 99]	5.52
CC1(C)c2cc(N3CCOC(C(C)(C)O)C3)ccc2Nc2c1cc(-c1ccncc1)c1c2C(=O)NC1 (stereo not drawn) [Example 43]	22.3
CNC1CCN(c2ccc3c(c2)C(C)(C)c2cc(-c4cnn5cccnc45)c4c(c2N3)C(=O)NC4)CC1 [Example 45]	5.28
COC1CCCn2c(-c3cc4c(c5c3CNC5=O)Nc3ccc(N5C6CCC5COC6)cc3C4(C)C)cnc21 (single isomer, unassigned) [Example 152]	34.6
CC1(C)c2cc(N3CCOCC3)ccc2Nc2c1cc(-c1cnc3ncccn13)c1c2C(=O)NC1 [Example 250]	3.1
CC1(C)c2cc(N3CCOCC3)ccc2Nc2c1cc(-c1cnn3cc(C#N)ccc13)c1c2C(=O)NC1 [Example 237]	8.7
CC1(C)c2cc(N3CCC(O)CC3)ccc2Nc2c1cc(-c1cnn3cccnc13)c1c2C(=O)NC1 [Example 47]	4.62
COC1CCCc2c(-c3cc4c(c5c3CNC5=O)Nc3ccc(N5CCOCC5)cc3C4(C)C)cnn21 (single isomer, unassigned) [Example 177]	25
